Patent US10611740B2, “Aryl dihydro-2H-benzo[b][1,4]oxazine sulfonamide and related compounds for use as agonists of RORγ and the treatment of disease” (Lycera Corporation, priority 2015, dated 2020)

How the values were obtained:
[1] = target: T1, RORγ-LBD (Homo sapiens, UniProt P51449); experiment: RORγ-Ligand Binding Domain (LBD) TR-FRET Assay; format: biochemical;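 on TR-FRET Assay Max Response: 665/615 nm ratio relative to signal without ursolic acid or compound set at 100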
T1 construct: made in house; host or cells: SF9 cells (baculovirus)
T1 sequence (P51449 269-508 limits assumed): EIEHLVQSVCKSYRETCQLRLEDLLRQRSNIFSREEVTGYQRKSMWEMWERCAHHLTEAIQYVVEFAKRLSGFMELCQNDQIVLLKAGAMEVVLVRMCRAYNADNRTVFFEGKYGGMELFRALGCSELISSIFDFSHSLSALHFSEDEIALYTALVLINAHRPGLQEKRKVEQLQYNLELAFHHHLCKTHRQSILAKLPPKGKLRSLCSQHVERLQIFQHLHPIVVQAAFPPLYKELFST
How it was run: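 His-tagged RORγ-LBD from SF9 baculovirus lysate, ~3 nM final, in 50 mM Tris pH 7.0, 50 mM KCl, 1 mM EDTA, 0.1 mM DTT, 0.01% BSA. Biotinylated SRC1 LXXLL peptide at 200 nM final with 2 μM ursolic acid; TR-FRET read-out, 1% DMSO final.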

[2] = target: T2, Gal4-RORγ-LBD (Homo sapiens, UniProt P51449); experiment: Gal4-RORγ Luciferase Reporter Assay in HEK-293T Cells; format: cell-based; conditions: HEK-293 cells
T2 construct: expressed in transfected cells; host or cells: HEK-293 cells (pcDNA3.1neo plasmid)
T2 sequence (P51449 269-508 limits assumed): T1 sequence (P51449 269-508 limits assumed)
How it was run: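 HEK-293 cells were transiently co-transfected with Gal4-RORγ-LBD and pGL4.31 Gal4-luciferase, with ursolic acid added at 2 μM final. Compounds were incubated overnight at 37° C. in 0.2% DMSO and luminescence read with One-Glo. Max Response is the upper plateau of a 4-parameter logistic fit, with signal lacking ursolic acid or compound set to 100.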

[3] = luciferase reporter, with 2 μM ursolic acid

SMILES | EC50 [1] | EC50 [2, 3] | EC50 ([2]; 2 μM ursolic acid) | TR-FRET Assay Max Response [1] | Gal4-RORγ Assay Max Response [2, 3] | Gal4-RORγ Assay Max Response ([2]; 2 μM ursolic acid)
CC(C)Cn1cc(-c2ccc3c(c2)N(S(=O)(=O)c2cccc(C(F)(F)F)c2)C[C@H](CCC(=O)O)O3)cn1 [Compound 2BH, (S)-3-(6-(1-isobutyl-1H-pyrazol-4-yl)-4-((3-(trifluoromethyl)-phenyl)sulfonyl)-3,4-dihydro-2H-benzo[b][1,4]oxazin-2-yl)propanoic acid] | 500 to 5000 nM | > 10000 nM | – | ** (The symbol “**” indicates a value in the range of greater than 90 to 150) | – | –
O=C(O)CC[C@H]1CN(S(=O)(=O)c2cccc(C(F)(F)F)c2)c2cc(-c3nccc(C(F)(F)F)n3)ccc2O1 [Compound 4B, (S)-3-(4-((3-(trifluoromethyl)-phenyl)sulfonyl)-6-(4-(trifluoromethyl)pyrimidin-2-yl)-3,4-dihydro-2H-benzo[b][1,4]oxazin-2-yl)propanoic acid] | < 500 nM | < 500 nM | – | *** (The symbol “***” indicates a value in the range of greater than 150 to 200) | ** (The symbol “**” indicates a value in the range of greater than 90 to 150) | –
O=C(O)[C@H]1C[C@H](C[C@H]2CN(S(=O)(=O)c3cccc(C(F)(F)F)c3)c3cc(-c4cc(F)cc(OC(F)F)c4)ccc3O2)C1 [Compound 59, (1S,3r)-3-(((S)-6-(3-(difluoromethoxy)-5-fluorophenyl)-4-((3-(trifluoromethyl)phenyl)sulfonyl)-3,4-dihydro-2H-benzo[b][1,4]oxazin-2-yl)methyl)cyclobutane-1-carboxylic acid] | < 500 nM | – | < 500 nM | *** (The symbol “***” indicates a value in the range of greater than 150 to 200) | – | ** (The symbol “**” indicates a value in the range of greater than 90 to 150)
Cn1cnc(-c2ccc3c(c2)N(S(=O)(=O)c2cccc(C(F)(F)F)c2)C[C@H](CCC(=O)O)O3)c1 [Compound 4Q, (S)-3-(6-(1-methyl-1H-imidazol-4-yl)-4-((3-(trifluoromethyl)-phenyl)sulfonyl)-3,4-dihydro-2H-benzo[b][1,4]oxazin-2-yl)propanoic acid] | 500 to 5000 nM | > 10000 nM | – | ** (The symbol “**” indicates a value in the range of greater than 90 to 150) | – | –
O=C(O)CC[C@H]1CN(S(=O)(=O)c2cccc(C(F)(F)F)c2)c2cc(-c3ncc(C(F)(F)F)s3)ccc2O1 [Compound 4H, (S)-3-(4-((3-(trifluoromethyl)-phenyl)sulfonyl)-6-(5-(trifluoromethyl)thiazol-2-yl)-3,4-dihydro-2H-benzo[b][1,4]oxazin-2-yl)propanoic acid] | < 500 nM | 500 to 5000 nM | – | *** (The symbol “***” indicates a value in the range of greater than 150 to 200) | * (The symbol “*” indicates a value in the range of 25 to 90) | –
O=C(O)CCC[C@H]1CN(S(=O)(=O)c2cccc(C(F)(F)F)c2)c2cc(-c3cccc(F)c3F)ccc2O1 [Compound 21A, (S)-4-(6-(2,3-difluorophenyl)-4-((3-(trifluoromethyl)phenyl)-sulfonyl)-3,4-dihydro-2H-benzo[b][1,4]oxazin-2-yl)butanoic acid] | < 500 nM | < 500 nM | – | **** (The symbol “****” indicates a value greater than 200) | ** (The symbol “**” indicates a value in the range of greater than 90 to 150) | –
Cc1cccc(-c2ccc3c(c2)N(S(=O)(=O)c2cccc(C(F)(F)F)c2)C[C@H](CCC(=O)O)O3)c1F [Compound 2AY, (S)-3-(6-(2-fluoro-3-methyl-phenyl)-4-((3-(trifluoro-methyl)phenyl)sulfonyl)-3,4-dihydro-2H-benzo[b][1,4]-oxazin-2-yl)propanoic acid] | < 500 nM | 500 to 5000 nM | – | **** (The symbol “****” indicates a value greater than 200) | **** (The symbol “****” indicates a value greater than 200) | –
N#Cc1cccc(-c2ccc3c(c2)N(S(=O)(=O)c2cccc(C(F)(F)F)c2)C[C@H](CCC(=O)O)O3)c1 [Compound 2AT, (S)-3-(6-(3-cyanophenyl)-4-((3-(trifluoromethyl)phenyl)-sulfonyl)-3,4-dihydro-2H-benzo[b][1,4]oxazin-2-yl)propanoic acid] | < 500 nM | 500 to 5000 nM | – | **** (The symbol “****” indicates a value greater than 200) | ** (The symbol “**” indicates a value in the range of greater than 90 to 150) | –

The next lines start with results.

EC50 [1] | EC50 [2, 3] | EC50 ([2]; 2 μM ursolic acid) | SMILES | TR-FRET Assay Max Response [1] | Gal4-RORγ Assay Max Response [2, 3] | Gal4-RORγ Assay Max Response ([2]; 2 μM ursolic acid)
< 500 nM | < 500 nM | – | O=C(NC[C@H]1CN(S(=O)(=O)c2cccc(C(F)(F)F)c2)c2cc(-c3cc(F)ccc3F)ccc2O1)C1(F)CC1 [Compound 30AR, (S)-N-((6-(2,5-difluorophenyl)-4-((3-(trifluoromethyl)phenyl)-sulfonyl)-3,4-dihydro-2H-benzo[b][1,4]oxazin-2-yl)-methyl)-1-fluorocyclopropane-1-carboxamide] | **** (The symbol “****” indicates a value greater than 200) | * (The symbol “*” indicates a value in the range of 25 to 90) | –
< 500 nM | < 500 nM | – | O=S(=O)(c1cccc(C(F)(F)F)c1)N1C[C@H](CCCO)Oc2ccc(-c3cccc(Cl)c3)cc21 [Compound 34D, (S)-3-(6-(3-chlorophenyl)-4-((3-(trifluoromethyl)phenyl)sulfonyl)-3,4-dihydro-2H-benzo[b][1,4]-oxazin-2-yl)propan-1-ol] | **** (The symbol “****” indicates a value greater than 200) | ** (The symbol “**” indicates a value in the range of greater than 90 to 150) | –
< 500 nM | < 500 nM | – | CN(C)c1cccc(-c2ccc3c(c2)N(S(=O)(=O)c2cccc(C(F)(F)F)c2)C[C@H](CNC(=O)C(C)(C)O)O3)n1 [Compound 30H, (S)-N-((6-(6-(dimethylamino)-pyridin-2-yl)-4-((3-(trifluoromethyl)phenyl)sulfonyl)-3,4-dihydro-2H-benzo[b][1,4]oxazin-2-yl)methyl)-2-hydroxy-2-methylpropanamide] | **** (The symbol “****” indicates a value greater than 200) | * (The symbol “*” indicates a value in the range of 25 to 90) | –
< 500 nM | < 500 nM | – | O=C(O)C1CCN(C(=O)CC[C@H]2CN(S(=O)(=O)c3cccc(C(F)(F)F)c3)c3cc(-c4cccc(C(F)(F)F)n4)ccc3O2)CC1 [Compound 23F, (S)-1-(3-(4-((3-(trifluoromethyl)-phenyl)sulfonyl)-6-(6-(trifluoro-methyl)pyridin-2-yl)-3,4-dihydro-2H-benzo[b][1,4]oxazin-2-yl)propanoyl)piperidine-4-carboxylic acid] | **** (The symbol “****” indicates a value greater than 200) | ** (The symbol “**” indicates a value in the range of greater than 90 to 150) | –
< 500 nM | – | < 500 nM | O=C(NC[C@H]1CN(S(=O)(=O)c2cccc(C(F)(F)F)c2)c2cc(-c3cccc(F)c3Cl)ccc2O1)C1CC1 [Compound 30CF, (S)-N-((6-(2-chloro-3-fluoro-phenyl)-4-((3-(trifluoromethyl)-phenyl)sulfonyl)-3,4-dihydro-2H-benzo[b][1,4]oxazin-2-yl)methyl)cyclopropanecarbox-amide] | **** (The symbol “****” indicates a value greater than 200) | – | ** (The symbol “**” indicates a value in the range of greater than 90 to 150)
< 500 nM | – | 500 to 5000 nM | CC(C)(F)C(=O)NC[C@H]1CN(S(=O)(=O)c2cccc(C(F)(F)F)c2)c2cc(-c3cc(F)cc(OC(F)F)c3)ccc2O1 [Compound 30DG, (S)-N-((6-(3-(difluoromethoxy)-5-fluorophenyl)-4-((3-(trifluoro-methyl)phenyl)sulfonyl)-3,4-dihydro-2H-benzo[b][1,4]-oxazin-2-yl)methyl)-2-fluoro-2-methylpropanamide] | *** (The symbol “***” indicates a value in the range of greater than 150 to 200) | – | * (The symbol “*” indicates a value in the range of 25 to 90)
< 500 nM | – | 500 to 5000 nM | CC(C)(O)CC(=O)NC[C@H]1CN(S(=O)(=O)c2cccc(C(F)(F)F)c2)c2cc(-c3cccc(F)c3Cl)ccc2O1 [Compound 30CG, (S)-N-((6-(2-chloro-3-fluoro-phenyl)-4-((3-(trifluoromethyl)-phenyl)sulfonyl)-3,4-dihydro-2H-benzo[b][1,4]oxazin-2-yl)methyl)-3-hydroxy-3-methylbutanamide] | *** (The symbol “***” indicates a value in the range of greater than 150 to 200) | – | * (The symbol “*” indicates a value in the range of 25 to 90)
